Where “and” joins values, the source holds several entries; their conditions need not be identical. Equal entries are not always repeated.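 Step 1: Grow cells in 96-well plates. Step 2: Expose to compound for 48 hours at 5 concentrations. Step 3: Interpolate endpoints linearly; if unreached, use highest concentration. GI50: concentration for 50% inhibition of growth. TGI: total growth inhibition.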
Columns and labels:
Assay in all cases: NCI tumour cell line growth inhibition, 48 h
K-562 leukemia = tested on: K-562 leukemia
LOX IMVI melanoma = tested on: LOX IMVI melanoma
RPMI-8226 leukemia = tested on: RPMI-8226 leukemia
OVCAR-8 ovarian = tested on: OVCAR-8 ovarian
SNB-75 CNS = tested on: SNB-75 CNS
KM12 colon = tested on: KM12 colon
UACC-62 melanoma = tested on: UACC-62 melanoma
EKVX NSCLC = tested on: EKVX NSCLC
SK-MEL-28 melanoma = tested on: SK-MEL-28 melanoma
786-0 renal = tested on: 786-0 renal

| Structure (SMILES) | GI50 (K-562 leukemia) [µM] | TGI (K-562 leukemia) | GI50 (LOX IMVI melanoma) [µM] | TGI (LOX IMVI melanoma) | GI50 (RPMI-8226 leukemia) [µM] | TGI (RPMI-8226 leukemia) | GI50 (OVCAR-8 ovarian) [µM] | TGI (OVCAR-8 ovarian) | GI50 (SNB-75 CNS) [µM] | TGI (SNB-75 CNS) | GI50 (KM12 colon) [µM] | TGI (KM12 colon) | GI50 (UACC-62 melanoma) [µM] | TGI (UACC-62 melanoma) | GI50 (EKVX NSCLC) [µM] | TGI (EKVX NSCLC) | GI50 (SK-MEL-28 melanoma) [µM] | TGI (SK-MEL-28 melanoma) [µM] | GI50 (786-0 renal) [µM] | TGI (786-0 renal) [µM] |
| --- | --- | --- | --- | --- | --- | --- | --- | --- | --- | --- | --- | --- | --- | --- | --- | --- | --- | --- | --- | --- |
| Cc1ccc(O)c(NC(=O)c2ccc(CNc3ccnc(C(F)(F)F)c3)cc2)c1 | 1.54 | 17.9 µM | 5.64 | 31.4 µM | 2.64 | 11.3 µM | 15.9 | > 100 µM | 22.5 | 90.3 µM | 4.75 | 24.3 µM | 1.07 | 13.4 µM | 4.04 | 34.9 µM | 13.8 | 39.9 | 5.2 | 47.7 |
| CN(Cc1cc(C(C)(C)C)cc(Br)c1O)Cc1cc(C(C)(C)C)cc(Br)c1O |  | 14 µM |  | 14.8 µM |  | 6.79 µM |  | 15.3 µM |  | 13 µM |  | 12.9 µM |  | 12.8 µM |  | 12.7 µM |  | 17.4 |  | 13.8 |
| Cc1cnc(C(=O)Nc2nc3ccc(S(=O)(=O)Nc4ccc(C5(C(F)(F)F)CC5)cc4)cc3[nH]2)cn1 | 0.216 | 12.7 µM | 0.539 | 5.6 µM | 0.354 | 6.86 µM | 0.722 | 23.4 µM | 0.183 | 0.786 µM | 0.309 | 13 µM | 0.372 | 6.99 µM | 0.701 | 9.34 µM | 1.19 | 12.2 | 0.484 | 6.65 |
| CC(C)CC(NC(=O)OC(C)(C)C)C(=O)Nc1ccc(Nc2nc(F)nc(-c3c4ccccc4cn3C)n2)cc1 (centres undefined) |  | > 100 µM |  | > 100 µM |  | 22.4 µM |  | > 100 µM |  | > 100 µM |  | 42.3 µM |  | > 100 µM |  | > 81.1 µM |  | > 100 |  | > 100 |
| O=C1CCc2c(sc3[nH]c(=S)n(Cc4ccc(Cl)cc4)c(=O)c23)C1 | 0.324 | > 100 µM | 0.41 | 5.4 µM | 0.383 |  | 0.468 | > 100 µM | 0.387 | > 81.4 µM | 0.361 | 1.68 µM | 0.329 | 1.76 µM | 0.544 | > 100 µM | 0.64 | > 21.1 | 1.23 | > 100 |
| O=C1C(Cl)=C(NCc2ccco2)C(=O)c2ccccc21 | 4.55 | > 100 µM | 7.1 | 72.7 µM | 10.2 | > 100 µM | 22.5 | > 100 µM | 2.25 | 7.53 µM | 8.67 | > 100 µM | 3.98 | 13.6 µM | 37.3 | > 100 µM | 6.89 | 17.8 | 29 | 72.3 |
| O=C1C(=Cc2c(O)cc(O)cc2O)C(=O)c2ccccc21 |  | > 93.2 µM |  | 29.2 µM |  | > 71.9 µM |  | > 59.7 µM |  | > 59.7 µM |  | > 51.4 µM |  | > 54.9 µM |  | > 100 µM |  | > 60.3 |  | > 56.4 |
| O=C1c2ccccc2-c2c1c1ccccc1c(=O)n2CCCn1ccnc1 | 1.45 | 4.64 µM | 0.924 | 4.33 µM | 0.73 | 6.26 µM | 0.87 | 2.39 µM | 5.82 | 93.4 µM | 1.94 | 5.95 µM | 0.791 | 2.29 µM | 9.09 | > 100 µM | 3.47 | > 100 | 1.74 | 7.72 |
| COc1cccc(/C=N/C(/N=C/c2cccc(OC)c2O)c2cccc(OC)c2O)c1O |  | > 100 µM |  | 58 µM |  | > 100 µM |  | 47.9 µM |  | 48.1 µM |  | 76.7 µM |  | 59.8 µM |  | 52 µM |  | > 100 |  | > 100 |
| CCOC(=O)c1c2c(n3ccccc13)C(=O)c1ncccc1C2=O | 0.0745 | > 100 µM | 0.0413 | 1.78 µM | 0.423 | 19.5 µM | 0.0581 | 6 µM | 0.818 | 13 µM | 0.27 | 75.9 µM | 0.0337 | 1.39 µM | 1.13 | 19.3 µM | 0.134 | 33.3 | 0.18 | 13.8 |
| NCCCNCCCCNC(=O)C(O)NC(=O)CCCCCCN=C(N)N (centres undefined) | 805 | 750 µM and > 3610 µM | 828 | 750 µM and 1570 µM | 1770 | 750 µM and > 3790 µM | 2440 | 750 µM and > 5000 µM | > 1870 | 671 µM and > 3170 µM | 1360 | 619 µM and > 5000 µM | > 2860 | 750 µM and > 5000 µM | 4980 | 742 µM and > 5000 µM | > 3670 | > 5000 | > 750 | > 5000 |
| Cc1cc(C)c(-n2c(-c3ccc(Br)cc3)cs/c2=N\N=C2C=C(C(C)(C)C)C(=O)C(C(C)(C)C)=C2)c(C)c1 |  | > 100 µM |  | > 100 µM |  | > 100 µM |  | > 100 µM |  | 57.1 µM |  | > 100 µM |  | > 100 µM |  | > 100 µM |  | > 100 |  | > 100 |
| O=C(/C=C/c1ccc(C(F)(F)F)cc1)c1ccc(Nc2nc(NCCO)nc(Nc3ccc(Cl)cc3)n2)cc1 | 2.83 | > 100 µM | 1.66 | 3.22 µM | 1.56 | 5.43 µM | 5.66 | 31.3 µM | 2.05 | 8.71 µM | 2.13 | 4.84 µM | 6.32 | 19.5 µM | 3.41 | 14.5 µM | 5.88 | 18.3 | 2.25 | 5.36 |
| CC(=O)OCC1OC(n2c(-c3ccc(C)cc3)cc(-c3ccccc3)c(C#N)c2=O)C(OC(C)=O)C(OC(C)=O)C1OC(C)=O (centres undefined) |  | > 100 µM |  | > 100 µM |  | > 100 µM |  | > 100 µM |  | > 100 µM |  | > 100 µM |  | > 100 µM |  | > 100 µM |  | > 100 |  | > 100 |
| CC(C)(c1ccccc1)c1ccc(OC#N)cc1 |  | > 100 µM |  | > 58.9 µM |  | > 70.1 µM |  | > 100 µM |  | > 74.4 µM |  | > 100 µM |  | > 100 µM |  | > 100 µM |  | > 100 |  | > 100 |

Source: PubChem BioAssay (NCI)
